Several values for one entry are separate records, joined by “and”; a condition that tells them apart may be missing. Equal entries are not always repeated.

For one series the following is noted: from H-Val-MeGlu(tBu)-Ile-Trp(Boc)-MeLys(Boc)-Ala-Phe(3R-MeO)-OH; amide bond; 21-membered ring; T3P/DIEA; DCM; 0.75 mM; 25.0 °C.
As for `CC[C@H](C)[C@@H]1NC(=O)[C@H](CCC(=O)OC(C)(C)C)N(C)C(=O)[C@H](C(C)C)NC(=O)[C@H]([C@H](OC)c2ccccc2)NC(=O)[C@H](C)NC(=O)[C@H](CCCCNC(=O)OC(C)(C)C)N(C)C(=O)[C@H](Cc2cn(C(=O)OC(C)(C)C)c3ccccc23)NC1=O` [H-Val-MeGlu(tBu)-Ile-Trp(Boc)-MeLys(Boc)-Ala-Phe(3R-MeO)-OH], the ring closure, crude yield came to 52%.

Still in this series, the particulars now being: from H-Val-MeLeu-Ile-Trp(Boc)-MeHnv(TBDMS)-Ala-Phe-OH; amide bond; 21-membered ring; T3P/DIEA; DCM; 0.75 mM; 25.0 °C.
For `CC[C@H](C)[C@@H]1NC(=O)[C@H](CC(C)C)N(C)C(=O)[C@H](C(C)C)NC(=O)[C@H](Cc2ccccc2)NC(=O)[C@H](C)NC(=O)[C@H](CCCO[Si](C)(C)C(C)(C)C)N(C)C(=O)[C@H](Cc2cn(C(=O)OC(C)(C)C)c3ccccc23)NC1=O` [H-Val-MeLeu-Ile-Trp(Boc)-MeHnv(TBDMS)-Ala-Phe-OH], the ring closure, crude yield stood at 94%.

The same series, now with this note: from H-Val-MeLeu-Ile-Trp(Boc)-MeLys(Boc)-Ala-Phe(3R-MeO)-OH; amide bond; 21-membered ring; T3P/DIEA; DCM; 0.75 mM; 25.0 °C.
Take `CC[C@H](C)[C@@H]1NC(=O)[C@H](CC(C)C)N(C)C(=O)[C@H](C(C)C)NC(=O)[C@H]([C@H](OC)c2ccccc2)NC(=O)[C@H](C)NC(=O)[C@H](CCCCNC(=O)OC(C)(C)C)N(C)C(=O)[C@H](Cc2cn(C(=O)OC(C)(C)C)c3ccccc23)NC1=O` [H-Val-MeLeu-Ile-Trp(Boc)-MeLys(Boc)-Ala-Phe(3R-MeO)-OH]: the ring closure, crude yield stood at 88%.

Staying with this series, now noted: from H-Val-MeLeu-Ile-Trp(Boc)-MeLys(Boc)-Ala-Phe-OH; amide bond; 21-membered ring; T3P/DIEA; DCM; 0.75 mM; 25.0 °C.
`CC[C@H](C)[C@@H]1NC(=O)[C@H](CC(C)C)N(C)C(=O)[C@H](C(C)C)NC(=O)[C@H](Cc2ccccc2)NC(=O)[C@H](C)NC(=O)[C@H](CCCCNC(=O)OC(C)(C)C)N(C)C(=O)[C@H](Cc2cn(C(=O)OC(C)(C)C)c3ccccc23)NC1=O` [H-Val-MeLeu-Ile-Trp(Boc)-MeLys(Boc)-Ala-Phe-OH] had a ring closure, crude yield of 75%.

The series is the same for the next values; noted with them: from H-Val-MeLeu-Ile-Trp(Boc)-MeOrn(Boc)-Ala-Phe-OH; amide bond; 21-membered ring; T3P/DIEA; DCM; 0.75 mM; 25.0 °C.
For the compound `CC[C@H](C)[C@@H]1NC(=O)[C@H](CC(C)C)N(C)C(=O)[C@H](C(C)C)NC(=O)[C@H](Cc2ccccc2)NC(=O)[C@H](C)NC(=O)[C@H](CCCNC(=O)OC(C)(C)C)N(C)C(=O)[C@H](Cc2cn(C(=O)OC(C)(C)C)c3ccccc23)NC1=O` [H-Val-MeLeu-Ile-Trp(Boc)-MeOrn(Boc)-Ala-Phe-OH], the ring closure, crude yield was determined as 98%.

The series is the same for the next values; noted with them: from H-Val-MeLeu-Ile-Tyr(tBu)-MeGlu(Me)-Ala-Phe-OH; amide bond; 21-membered ring; T3P/DIEA; DCM; 0.75 mM; 25.0 °C.
Consider `CC[C@H](C)[C@@H]1NC(=O)[C@H](CC(C)C)N(C)C(=O)[C@H](C(C)C)NC(=O)[C@H](Cc2ccccc2)NC(=O)[C@H](C)NC(=O)[C@H](CCC(=O)OC)N(C)C(=O)[C@H](Cc2ccc(OC(C)(C)C)cc2)NC1=O` [H-Val-MeLeu-Ile-Tyr(tBu)-MeGlu(Me)-Ala-Phe-OH], for which the ring closure, crude yield was 72%.

Staying with this series, now noted: the molecule shown is the open-chain precursor; amide bond; 21-membered ring.
Compound “H-Val-MeLeu-Ile-Trp(Boc)-MeLys(Boc)-Glu(TOTA-(+)JQ1)-Phe(3R-MeO)-OH” came in with a ring closure, crude yield of 64%.
The same measure, in the same setting: the value for “H-Val-MeLeu-Ile-Trp(Boc)-MeLys(Boc)-Glu(TOTA-(-)JQ1)-Phe(3R-MeO)-OH” was 70%; that for “H-Glu(TOTA-PMX-methylester)-Phe(3R-MeO)-Val-MeLeu-Ile-Trp(Boc)-MeLys(Boc)-OH” was 77% and 58%; that for “H-Val-MeLeu-Ile-Trp(Boc)-MeLys(Boc)-Glu(TOTA-SLF')-Phe(3R-MeO)-OH” was 54%.
As to “H-Glu(TOTA-TMP)-Phe(3R-MeO)-Val-MeLeu-Ile-Trp(Boc)-MeLys(Boc)-OH?”, the ring closure, crude yield is 65%.

The series is the same for the next values; noted with them: the molecule shown is the open-chain precursor; amide bond; 21-membered ring; DIC/HOAt/Et3N; DCM; 0.75 mM; 25.0 °C.
Compound “H-Val-MeLeu-Ile-Trp(prenyl)-MeLys(Boc)-Ala-Phe-OH” gave a ring closure, crude yield of 78%.
The same measure, in the same setting: to “H-Val-MeLeu-dehydroisonorleucine-Trp(prenyl)-MeLys(Boc)-Ala-Phe(3R-MeO)-OH” belongs 81%.

The values are drawn from EP4089103A1, “CLPCP PROTEASE-BINDING CYCLIC HEPTAPEPTIDES” (priority 2021, dated 2022).
